In US10442803B2, “Tricyclic heterocycles as bet protein inhibitors” (Incyte Corporation, priority 2013, dated 2019):
Where a name gives a salt, the structure may show the parent alone.

Test system: KMS.12.BM cells
Assay: KMS.12.BM cell viability assay
Assay type: cell-based
Conditions: 72 h; KMS.12.BM human myeloma cells, 3 days, Cell Titer-GLO ATP quantitation; read-out: KMS cellular IC50
In short: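 IC50 derived from luminescent ATP quantitation (Cell Titer-GLO) of viable cells after 3-day compound treatment. KMS.12.BM human myeloma line seeded at 5000 cells/well in RPMI with 10% FBS.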

**Q.** With `Cc1cc2c(cc(N[C@H]3CCOC3)c3nnc(C)n32)n1Cc1ccccc1` [Example 148, 6-benzyl-1,7-dimethyl-N-[(3S)-tetrahydrofuran-3-yl]-6H-pyrrolo[2,3-e][1,2,4]triazolo[4,3-a]pyridin-4-amine] as the compound, how does the IC50 read?
**A.** The IC50 was 1000 to 10000 nM.

**Q.** How did the IC50 turn out when `Cc1cc2c(cc(N[C@@H]3CCN(C(=O)OC(C)(C)C)C3)c3nnc(C)n32)n1Cc1ccccc1` [Example 149, tert-butyl (3R)-3-[(6-benzyl-1,7-dimethyl-6H-pyrrolo[2,3-e][1,2,4]triazolo[4,3-a]pyridin-4-yl)amino]pyrrolidine-1-carboxylate] was run?
**A.** The IC50 was 1000 to 10000 nM.

**Q.** Which IC50 does the source give for `Cc1cc2c(cc(N[C@H]3CCN(C(=O)OC(C)(C)C)C3)c3nnc(C)n32)n1Cc1ccccc1` [Example 150, tert-butyl (3S)-3-[(6-benzyl-1,7-dimethyl-6H-pyrrolo[2,3-e][1,2,4]triazolo[4,3-a]pyridin-4-yl)amino]pyrrolidine-1-carboxylate] here?
**A.** Its IC50 is 1000 to 10000 nM.

**Q.** For `Cc1cc2c(cc(N[C@@H]3CCNC3)c3nnc(C)n32)n1Cc1ccccc1` [Example 151, 6-benzyl-1,7-dimethyl-N-[(3R)-pyrrolidin-3-yl]-6H-pyrrolo[2,3-e][1,2,4]triazolo[4,3-a]pyridin-4-amine bis(trifluoroacetate) salt], which IC50 is on record?
**A.** Its IC50 is ≤ 1000 nM.

**Q.** With `Cc1cc2c(cc(N[C@H]3CCNC3)c3nnc(C)n32)n1Cc1ccccc1` [Example 152, 6-benzyl-1,7-dimethyl-N-[(3S)-pyrrolidin-3-yl]-6H-pyrrolo[2,3-e][1,2,4]triazolo[4,3-a]pyridin-4-amine bis(trifluoroacetate) salt] as the compound, how does the IC50 read?
**A.** Its IC50 is ≤ 1000 nM.

**Q.** For `Cc1cc2c(cc(NC3CCN(C)CC3)c3nnc(C)n32)n1Cc1ccccn1` [Example 153, 1,7-dimethyl-N-(1-methylpiperidin-4-yl)-6-(pyridin-2-ylmethyl)-6H-pyrrolo[2,3-e][1,2,4]triazolo[4,3-a]pyridin-4-amine], which IC50 is on record?
**A.** Its IC50 is ≤ 1000 nM.

**Q.** For `Cc1cc2c(cc(NC3CCN(C)CC3)c3nnc(C)n32)n1Cc1cccnc1` [Example 154, 1,7-dimethyl-N-(1-methylpiperidin-4-yl)-6-(pyridin-3-ylmethyl)-6H-pyrrolo[2,3-e][1,2,4]triazolo[4,3-a]pyridin-4-amine], which IC50 is on record?
**A.** Its IC50 is ≤ 1000 nM.

**Q.** Which IC50 does the source give for `Cc1nnc2ccc3c(cc(-c4ccn[nH]4)n3Cc3cccc(Cl)c3)n12` [Example 155, 6-(3-chlorobenzyl)-1-methyl-7-(1H-pyrazol-5-yl)-6H-pyrrolo[2,3-e][1,2,4]triazolo[4,3-a]pyridine bis(trifluoroacetate) salt] here?
**A.** Its IC50 is ≤ 1000 nM.

**Q.** With `CCN1CC(CC#N)(n2ccc(-c3cc4c(ccc5nnc(C)n54)n3Cc3cccc(Cl)c3)n2)C1` [Example 158, (3-{3-[6-(3-Chlorobenzyl)-1-methyl-6H-pyrrolo[2,3-e][1,2,4]triazolo[4,3-a]pyridin-7-yl]-1H-pyrazol-1-yl}-1-ethylazetidin-3-yl)acetonitrile bis(trifluoroacetate) salt] as the compound, how does the IC50 read?
**A.** The IC50 was ≤ 1000 nM.

**Q.** `Cc1nnc2ccc3c(cc(-c4ccn(CCC(N)=O)n4)n3Cc3cccc(Cl)c3)n12` [Example 159, 3-{3-[6-(3-Chlorobenzyl)-1-methyl-6H-pyrrolo[2,3-e][1,2,4]triazolo[4,3-a]pyridin-7-yl]-1H-pyrazol-1-yl}propanamide trifluoroacetate salt] was tested. Which IC50 did it give?
**A.** Its IC50 is ≤ 1000 nM.

**Q.** For `CCN1CC(n2ccc(-c3cc4c(ccc5nnc(C)n54)n3Cc3cccc(Cl)c3)n2)C1` [Example 160, 6-(3-Chlorobenzyl)-7-[1-(1-ethylazetidin-3-yl)-1H-pyrazol-3-yl]-1-methyl-6H-pyrrolo[2,3-e][1,2,4]triazolo[4,3-a]pyridine bis(trifluoroacetate) salt], which IC50 is on record?
**A.** The IC50 was ≤ 1000 nM.

**Q.** Which IC50 does the source give for `Cc1nnc2ccc3c(cc(-c4ccn(C5CN(S(=O)(=O)N(C)C)C5)n4)n3Cc3cccc(Cl)c3)n12` [Example 161, 3-{3-[6-(3-Chlorobenzyl)-1-methyl-6H-pyrrolo[2,3-e][1,2,4]triazolo[4,3-a]pyridin-7-yl]-1H-pyrazol-1-yl}-N,N-dimethylazetidine-1-sulfonamide bis(trifluoroacetate) salt] here?
**A.** The IC50 was ≤ 1000 nM.

**Q.** `Cc1nnc2ccc3c(cc(-c4ccn(C5CN(C(=O)CN(C)C)C5)n4)n3Cc3cccc(Cl)c3)n12` [Example 162, 2-(3-{3-[6-(3-Chlorobenzyl)-1-methyl-6H-pyrrolo[2,3-e][1,2,4]triazolo[4,3-a]pyridin-7-yl]-1H-pyrazol-1-yl}azetidin-1-yl)-N,N-dimethyl-2-oxoethanamine bis(trifluoroacetate) salt] was tested. Which IC50 did it give?
**A.** The IC50 was ≤ 1000 nM.

**Q.** `CCC(=O)N1CC(n2ccc(-c3cc4c(ccc5nnc(C)n54)n3Cc3cccc(Cl)c3)n2)C1` [Example 163, 6-(3-Chlorobenzyl)-1-methyl-7-[1-(1-propionylazetidin-3-yl)-1H-pyrazol-3-yl]-6H-pyrrolo[2,3-e][1,2,4]triazolo[4,3-a]pyridine trifluoroacetate salt] was tested. Which IC50 did it give?
**A.** Its IC50 is ≤ 1000 nM.

**Q.** For `Cc1nnc2ccc3c(cc(-c4ccn(C5CN(C(=O)C6CC6)C5)n4)n3Cc3cccc(Cl)c3)n12` [Example 164, 6-(3-Chlorobenzyl)-7-{1-[1-(cyclopropylcarbonyl)azetidin-3-yl]-1H-pyrazol-3-yl}-1-methyl-6H-pyrrolo[2,3-e][1,2,4]triazolo[4,3-a]pyridine trifluoroacetate salt], which IC50 is on record?
**A.** Its IC50 is ≤ 1000 nM.

**Q.** For `Cc1nnc2ccc3c(cc(-c4ccn(C5CN(S(=O)(=O)C6CC6)C5)n4)n3Cc3cccc(Cl)c3)n12` [Example 165, 6-(3-Chlorobenzyl)-7-{1-[1-(cyclopropylsulfonyl)azetidin-3-yl]-1H-pyrazol-3-yl}-1-methyl-6H-pyrrolo[2,3-e][1,2,4]triazolo[4,3-a]pyridine trifluoroacetate salt], which IC50 is on record?
**A.** The IC50 was ≤ 1000 nM.

**Q.** With `CCS(=O)(=O)N1CC(n2ccc(-c3cc4c(ccc5nnc(C)n54)n3Cc3cccc(Cl)c3)n2)C1` [Example 166, 6-(3-Chlorobenzyl)-7-{1-[1-(ethylsulfonyl)azetidin-3-yl]-1H-pyrazol-3-yl}-1-methyl-6H-pyrrolo[2,3-e][1,2,4]triazolo[4,3-a]pyridine trifluoroacetate salt] as the compound, how does the IC50 read?
**A.** Its IC50 is ≤ 1000 nM.

**Q.** Which IC50 does the source give for `CCOC(=O)N1CC(n2ccc(-c3cc4c(ccc5nnc(C)n54)n3Cc3cccc(Cl)c3)n2)C1` [Example 167, Ethyl 3-{3-[6-(3-chlorobenzyl)-1-methyl-6H-pyrrolo[2,3-e][1,2,4]triazolo[4,3-a]pyridin-7-yl]-1H-pyrazol-1-yl}azetidine-1-carboxylate trifluoroacetate salt] here?
**A.** Its IC50 is ≤ 1000 nM.

**Q.** Which IC50 does the source give for `Cc1nnc2ccc3c(cc(-c4ccn(CCC(=O)NC5COC5)n4)n3Cc3cccc(Cl)c3)n12` [Example 168, 3-{3-[6-(3-Chlorobenzyl)-1-methyl-6H-pyrrolo[2,3-e][1,2,4]triazolo[4,3-a]pyridin-7-yl]-1H-pyrazol-1-yl}-N-oxetan-3-ylpropanamide trifluoroacetate salt] here?
**A.** The IC50 was ≤ 1000 nM.

**Q.** With `Cc1nnc2ccc3c(cc(-c4ccn(CCC(=O)N5CCOCC5)n4)n3Cc3cccc(Cl)c3)n12` [Example 169, 6-(3-Chlorobenzyl)-1-methyl-7-[1-(3-morpholin-4-yl-3-oxopropyl)-1H-pyrazol-3-yl]-6H-pyrrolo[2,3-e][1,2,4]triazolo[4,3-a]pyridine trifluoroacetate salt] as the compound, how does the IC50 read?
**A.** The IC50 was ≤ 1000 nM.

**Q.** `Cc1nnc2ccc3c(cc(-c4ccn(CCC(=O)NC5CCOCC5)n4)n3Cc3cccc(Cl)c3)n12` [Example 170, 3-{3-[6-(3-Chlorobenzyl)-1-methyl-6H-pyrrolo[2,3-e][1,2,4]triazolo[4,3-a]pyridin-7-yl]-1H-pyrazol-1-yl}-N-(tetrahydro-2H-pyran-4-yl)propanamide trifluoroacetate salt] was tested. Which IC50 did it give?
**A.** The IC50 was ≤ 1000 nM.

**Q.** With `Cc1nnc2ccc3c(cc(-c4ccn(CCC(=O)NC5CN(C)C5)n4)n3Cc3cccc(Cl)c3)n12` [Example 171, 3-{3-[6-(3-Chlorobenzyl)-1-methyl-6H-pyrrolo[2,3-e][1,2,4]triazolo[4,3-a]pyridin-7-yl]-1H-pyrazol-1-yl}-N-(1-methylazetidin-3-yl)propanamide bis(trifluoroacetate) salt] as the compound, how does the IC50 read?
**A.** Its IC50 is ≤ 1000 nM.

**Q.** `Cc1nnc2ccc3c(cc(-c4c[nH]cn4)n3Cc3cccc(Cl)c3)n12` [Example 172, 6-(3-Chlorobenzyl)-7-(1H-imidazol-4-yl)-1-methyl-6H-pyrrolo[2,3-e][1,2,4]triazolo[4,3-a]pyridine bis(trifluoroacetate) salt] was tested. Which IC50 did it give?
**A.** Its IC50 is ≤ 1000 nM.

**Q.** `Cc1nnc2ccc3c(cc(-c4ccn(CCCO)n4)n3Cc3cccc(Cl)c3)n12` [Example 173, 3-{3-[6-(3-Chlorobenzyl)-1-methyl-6H-pyrrolo[2,3-e][1,2,4]triazolo[4,3-a]pyridin-7-yl]-1H-pyrazol-1-yl}propan-1-ol trifluoroacetate salt] was tested. Which IC50 did it give?
**A.** The IC50 was ≤ 1000 nM.

**Q.** For `CNC(=O)CCn1ccc(-c2cc3c(ccc4nnc(C)n43)n2Cc2cccc(Cl)c2)n1` [Example 174, 3-{3-[6-(3-Chlorobenzyl)-1-methyl-6H-pyrrolo[2,3-e][1,2,4]triazolo[4,3-a]pyridin-7-yl]-1H-pyrazol-1-yl}-N-methylpropanamide trifluoroacetate salt], which IC50 is on record?
**A.** Its IC50 is ≤ 1000 nM.

**Q.** How did the IC50 turn out when `CCNC(=O)CCn1ccc(-c2cc3c(ccc4nnc(C)n43)n2Cc2cccc(Cl)c2)n1` [Example 175, 3-{3-[6-(3-Chlorobenzyl)-1-methyl-6H-pyrrolo[2,3-e][1,2,4]triazolo[4,3-a]pyridin-7-yl]-1H-pyrazol-1-yl}-N-ethylpropanamide trifluoroacetate salt] was run?
**A.** The IC50 was ≤ 1000 nM.

**Q.** How did the IC50 turn out when `Cc1nnc2ccc3c(cc(-c4ccn(CCC(=O)NC(C)(C)C)n4)n3Cc3cccc(Cl)c3)n12` [Example 176, N-(tert-Butyl)-3-{3-[6-(3-chlorobenzyl)-1-methyl-6H-pyrrolo[2,3-e][1,2,4]triazolo[4,3-a]pyridin-7-yl]-1H-pyrazol-1-yl}propanamide trifluoroacetate salt] was run?
**A.** The IC50 was ≤ 1000 nM.

**Q.** How did the IC50 turn out when `Cc1nnc2ccc3c(cc(-c4ccn(C5COC5)n4)n3Cc3cccc(Cl)c3)n12` [Example 177, 6-(3-Chlorobenzyl)-1-methyl-7-(1-oxetan-3-yl-1H-pyrazol-3-yl)-6H-pyrrolo[2,3-e][1,2,4]triazolo[4,3-a]pyridine trifluoroacetate salt] was run?
**A.** Its IC50 is ≤ 1000 nM.

**Q.** How did the IC50 turn out when `Cc1nnc2ccc3c(cc(-c4ccn(CCO)n4)n3Cc3cccc(Cl)c3)n12` [Example 178, 2-{3-[6-(3-Chlorobenzyl)-1-methyl-6H-pyrrolo[2,3-e][1,2,4]triazolo[4,3-a]pyridin-7-yl]-1H-pyrazol-1-yl}ethanol trifluoroacetate salt] was run?
**A.** The IC50 was ≤ 1000 nM.
